Measured values: patent publication US12344610B2, “APOL1 inhibitors and methods of use” (Maze Therapeutics, Inc., priority 2022, dated 2025)

System: human immortalized podocytes inducibly expressing APOL1 G2
Experiment: APOL1 G2 podocyte cell rescue assay (Example B4)
Format: cell-based
Conditions: Homo sapiens, differentiated human podocytes, doxycycline-induced APOL1 G2, CellTiter-Glo; geometric mean of at least 2 runs; † = single run
Procedure, shortened: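 Differentiated hTERT-immortalized podocytes (clone D10) with doxycycline-inducible C-terminally HiBiT-tagged APOL1 G2, 6,000 cells/well, treated with doxycycline plus 8-point 3-fold compound series (0.4% DMSO) for 95 h at 37 °C. Viability by CellTiter-Glo luminescence; EC50 as geometric mean of ≥2 runs, each in duplicate.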

Row | Compound | EC50 [nM]
1 | C[C@]1(O)C[C@@H](n2nnc3cc(OCCN4CCC5(CC4)C(=O)Nc4ccc(C#N)cc45)cc(C(F)(F)F)c32)C1 [Compound 435, 2-oxo-1′-[2-({1-[(cis)-3-hydroxy-3-methylcyclobutyl]-7-(trifluoromethyl)-1H-1,2,3-benzotriazol-5-yl}oxy)ethyl]-1,2-dihydrospiro[indole-3,4′-piperidine]-5-carbonitrile] | 2.94
2 | C[C@]1(O)C[C@@H](n2cnc3cc(OCCN4CCC5(CC4)C(=O)Nc4ccc(Cl)cc45)cc(C#N)c32)C1 [Compound 439, 5-(2-{5-chloro-2-oxo-1,2-dihydrospiro[indole-3,4′-piperidin]-1′-yl}ethoxy)-1-[(cis)-3-hydroxy-3-methylcyclobutyl]-1H-1,3-benzodiazole-7-carbonitrile] | 3.92
3 | C[C@]1(O)C[C@@H](n2nnc3cc(OCCN4CCC5(CC4)C(=O)Nc4ccc(Cl)cc45)cnc32)C1 [Compound 440, 5-chloro-1′-[2-({3-[(cis)-3-hydroxy-3-methylcyclobutyl]-3H-[1,2,3]triazolo[4,5-b]pyridin-6-yl}oxy)ethyl]-1,2-dihydrospiro[indole-3,4′-piperidin]-2-one] | 15
4 | Cc1nc2cc(OCCN3CCC4(CC3)C(=O)Nc3ccc(Cl)cc34)cc(C(F)(F)F)c2n1[C@H]1C[C@@](C)(O)C1 [Compound 442, 5-chloro-1′-[2-({2-methyl-1-[(cis)-3-hydroxy-3-methylcyclobutyl]-7-(trifluoromethyl)-1H-1,3-benzodiazol-5-yl}oxy)ethyl]-1,2-dihydrospiro[indole-3,4′-piperidin]-2-one] | 1.16
5 | Cc1nc2cc(OCCN3CCC4(CC3)C(=O)Nc3ccc(C#N)cc34)cc(C(F)(F)F)c2n1[C@H]1C[C@@](C)(O)C1 [Compound 443, 1′-[2-({2-methyl-1-[(cis)-3-hydroxy-3-methylcyclobutyl]-7-(trifluoromethyl)-1H-1,3-benzodiazol-5-yl}oxy)ethyl]-2-oxo-1,2-dihydrospiro[indole-3,4′-piperidine]-5-carbonitrile] | 2.5
6 | C[C@]1(O)C[C@@H](n2cnc3cc(OCCN4CCC5(CC4)C(=O)Nc4ccc(C(F)F)cc45)cc(C(F)(F)F)c32)C1 [Compound 450, 5-(difluoromethyl)-1′-[2-({1-[(cis)-3-hydroxy-3-methylcyclobutyl]-7-(trifluoromethyl)-1H-1,3-benzodiazol-5-yl}oxy)ethyl]-1,2-dihydrospiro[indole-3,4′-piperidin]-2-one] | 0.846
7 | C[C@]1(O)C[C@@H](n2cnc3cc(OCCN4CCC5(CC4)C(=O)Nc4c(I)cc(Cl)cc45)cc(C(F)(F)F)c32)C1 [Compound 453, 5-chloro-7-iodo-1′-[2-({1-[(cis)-3-hydroxy-3-methylcyclobutyl]-7-(trifluoromethyl)-1H-1,3-benzodiazol-5-yl}oxy)ethyl]-1,2-dihydrospiro[indole-3,4′-piperidin]-2-one] | 1.81
8 | C[C@]1(O)C[C@@H](n2cnc3cc(OCCN4CCC5(CC4)C(=O)Nc4ccc(Cl)cc45)cc(F)c32)C1 [Compound 454, 5-chloro-1′-(2-((7-fluoro-1-((cis)-3-hydroxy-3-methylcyclobutyl)-1H-benzo[d]imidazol-5-yl)oxy)ethyl)spiro[indoline-3,4′-piperidin]-2-one] | 4.34
9 | C[C@]1(O)C[C@@H](n2ncc3cc(OCCN4CCC5(CC4)C(=O)Nc4ccc(Cl)cc45)cc(C(F)(F)F)c32)C1 [Compound 464, 5-chloro-1′-[2-({1-[(cis)-3-hydroxy-3-methylcyclobutyl]-7-(trifluoromethyl)-1H-indazol-5-yl}oxy)ethyl]-1,2-dihydrospiro[indole-3,4′-piperidin]-2-one] | 0.659
10 | C[C@]1(O)C[C@@H](n2ncc3cc(OCCN4CCC5(CC4)C(=O)Nc4ccc(C#N)cc45)cc(C(F)(F)F)c32)C1 [Compound 465, 2-oxo-1′-[2-({1-[(cis)-3-hydroxy-3-methylcyclobutyl]-7-(trifluoromethyl)-1H-indazol-5-yl}oxy)ethyl]-1,2-dihydrospiro[indole-3,4′-piperidine]-5-carbonitrile] | 1.22
